Reference: patent US20240368191A1, “HETEROCYCLIC COMPOUNDS AND USES THEREOF” (Kumquat Biosciences Inc., priority 2021, published 2024)
pIC50: −log10 of the molar value.

How the values were obtained:
GP2D cells = assay: Cell proliferation assay (CellTiter-Glo), K-Ras G12D cells; format: cell-based; details: bins given, read-out: Inhibition of GP2D Cells (IC50)
Method: ASPC-1 (ATCC CRL-1682), Panc-10.05 (ATCC CRL-2547), A427, and GP2D (Sigma 95090714) cell lines comprise a G12D mutation and can be used to assess Ras cellular signaling in vitro, e.g., in response to the compounds herein. […] ASPC-1 culture medium is prepared with RPMI-1640 and 10% heat-inactivated FBS. Panc-10.05 culture medium is prepared with RPMI-1640, 10 Units/ml human recombinant insulin, and 10% FBS. A427 cell culture is prepared with RPMI-1640 and 10% heat-inactivated FBS. GP2D culture medium is prepared with DMEM with 2 mM glutamine and 10% heat-inactivated FBS. A CellTiter-Glo (CTG) luminescent based assay (Promega) is used to assess growth of the cells, as a measurement of the ability of the compounds herein to inhibit Ras signaling in the cells. The cells (e.g., 800 per well) are seeded in their respective culture medium in standard tissue culture-treated 384-well format plates (Falcon #08-772-116) or ultra-low attachment surface 384-well format plates (S-Bio #MS-9384UZ). The day after plating, cells are treated with a dilution series (e.g., a 9 point 3-fold dilution series) of the compounds herein (e.g., approximately 40 μl final volume per well). Cell viability can be monitored (e.g., approximately 5 days later) according to the manufacturer's recommended instructions, where the CellTiter-Glo reagent is added (e.g., approximately 10 μl), vigorously mixed, covered, and placed on a plate shaker (e.g., approximately for 20 min) to ensure sufficient cell lysis prior to assessment of luminescent signal. The IC50 values are determined using the four parameter fit. The resulting IC50 value is a measurement of the ability of the compounds herein to reduce cell growth of Ras-driven cells (e.g., tumor cell lines) in vitro and/or in vivo.

K-Ras G12S = biological target: T1, K-Ras G12S (Homo sapiens, UniProt P01116, G12S); assay: HTRF assay, K-Ras G12S / SOS1 interaction; format: biochemical; details: IC50 against K-Ras G12D divided by IC50 against K-Ras G12S
T1 construct: made in house; host or cells: E. coli, e.g. BL21 (DE3)
From the text: This assay can be also used to assess a selective inhibition or reduction of signaling output of a mutant Ras protein relative to a wildtype, or relative to a different mutant Ras protein. For example, the equilibrium interaction of wildtype Kras or K-Ras mutant (e.g., wildtype or a mutant thereof including those mentioned in Example 6) with SOS1 (e.g., hSOS1) can be assessed as a proxy or an indication for a subject compound's ability to bind and inhibit Ras protein. HTRF assay detects from (i) a fluorescence resonance energy transfer (FRET) donor (e.g., antiGST-Europium) that is bound to GST-tagged K-Ras mutant to (ii) a FRET acceptor (e.g., anti-6His -XL665) bound to a His -tagged hSOS1.
The assay buffer can contain ˜5 mM HEPES pH 7.4, ˜150 mM NaCl, ˜1 mM DTT, 0.05% BSA and 0.0025% (v/v) Igepal. A Ras working solution is prepared in an assay buffer containing typically a suitable amount of the protein construct (e.g., GST-tagged K-Ras mutant) and the FRET donor (e.g., antiGST-Eu(K) from Cisbio, France). A SOS1 working solution is prepared in an assay buffer containing suitable amount of the protein construct (e.g., His -hSOS1) and the FRET acceptor (e.g., anti-6His -XL665 from Cisbio, France). A suitable amount of the protein construct will depend on the range of activity or range of IC50 values being detected or under investigation. For detecting IC50 within a range of 500 nM, the protein constructs of the same range of molarity can be utilized.
A fixed volume of DMSO with or without test compound is transferred into a 384-well plate. Ras working solution is added to all wells of the test plate. SOS1 working solution is added to all wells except for those that are subsequently filled the inhibitor control solution. Upon incubation for about 10 minutes or longer, the fluorescence is measured with a M1000Pro plate reader (Tecan) using HTRF detection (excitation 337 nm, emission 1: 620 nm, emission 2: 665 nm). Compounds are tested in duplicates at different concentrations (for example, 10 μM, 2.5 μM, 0.63 μM, 0.16 μM, 0.04 μM, 0.01 μM test compound). The ratiometric data (i.e., emission 2 divided by emission 1) is used to calculate IC50 values against Ras using GraphPad Prism (GraphPad software). Following this general procedure, samples were tested with or without a subject compound disclosed herein including compounds exemplified in Table 3 to assess their abilities to inhibit K-Ras G12S relative to another mutant (e.g., K-Ras G12D). Signaling output measured in terms of IC50 values can be obtained, a ratio of IC50 against one mutant relative to another mutant can be calculated. For instance, a selective reduction of K-Ras G12S signaling output can be evidenced by a ratio greater than one. In particular, a selective reduction of K-Ras G12S signaling relative to K-Ras G12D signaling is evidenced as the ratio of IC50 (against K-Ras G12D) to IC50 (against K-Ras G12S) is greater than 1.

in vitro = details: microsomes, pH 7.4
A549 cells = assay: Cell proliferation assay (CellTiter-Glo), K-Ras G12S cells; format: cell-based; details: Homo sapiens, A549; ≤500 nM; read-out: Inhibition of A549 Cells (IC50)
Method: (§1) A549 (ATCC CRL-185) and LS123 (ATCC CRL-255) cell lines comprise a G12S mutation and can be used to assess Ras cellular signaling in vitro, e.g., in response to the compounds herein. A549 culture medium is prepared with RPMI-1640 and 10% heat-inactivated FBS. LS123 culture medium is prepared with RPMI-1640 and 10% heat-inactivated FBS. A CellTiter-Glo (CTG) luminescent based assay (Promega) is used to assess growth of the cells, as a measurement of the ability of the compounds herein to inhibit Ras signaling in the cells. The cells (e.g., 800 per well) are seeded in their respective culture medium in standard tissue culture-treated 384-well format plates (Falcon #08-772-116) or ultra-low attachment surface 384-well format plates (S-Bio #MS-9384WZ). The day after plating, cells are treated with a dilution series (e.g., a 10 point 3-fold dilution series) of the compounds herein (e.g., approximately 40 μl final volume per well). Cell viability can be monitored (e.g., approximately 6 days later) according to the manufacturer's recommended instructions, where the CellTiter-Glo reagent is added (e.g., approximately 10 μl), vigorously mixed, covered, and placed on a plate shaker (e.g., approximately for 20 min) to ensure sufficient cell lysis prior to assessment of luminescent signal. The IC50 values are determined using the four parameter fit. The resulting IC50 value is a measurement of the ability of the compounds herein to reduce cell growth of Ras-driven cells (e.g., tumor cell lines) in vitro and/or in vivo.

LS123 cells = assay: as above; format: cell-based; details: Comparative Compound A lacking the warhead vs Compound B
Method: as §1

[1] = biological target: T2, KRAS G12D 1-169 (His-tagged, GDP-loaded) (Homo sapiens, UniProt P01116, G12D); assay: Covalent modification of KRAS protein by intact-protein LC-MS; format: binding; details: comparable or same conditions as K-Ras G12S
T2 construct: His -tagged GDP-loaded G12D 1-169; made in house; host or cells: E. coli, e.g. BL21 (DE3)
How it was run: (§2)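 Percent modification is derived from deconvoluted intact-protein LC-ESI-MS peak intensities of adducted versus unmodified KRAS. GDP-loaded His-tagged KRAS 1-169 (~2 μM, HEPES buffer at physiological conditions) was exposed to compound for 24 hrs at room temperature, then quenched with formic acid before C4 reversed-phase separation.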

[2] = Metabolic (microsomal) stability assay; details: pooled liver microsomes, pH 7.4
[3] = biological target: T3, KRAS G12S 1-169 (His-tagged, GDP-loaded) (Homo sapiens, UniProt P01116, G12S); assay: Covalent modification of KRAS protein by intact-protein LC-MS; format: binding; details: KRAS G12S, 24 hr
T3 construct: His -tagged GDP-loaded G12S 1-169; made in house; host or cells: E. coli, e.g. BL21 (DE3)
How it was run: as §2

Q: Which results are given for `N#Cc1cn(C(=O)N2CC3(CCN(c4nc(OC[C@@]56CCCN5C[C@H](F)C6)nc5c(F)c(-c6ccc(F)c7sc(N)nc67)c(Cl)cc45)CC3)C2)cn1` [Compound A179, 1-(7-(7-(2-amino-7-fluorobenzo-[d]thiazol-4-yl)-6-chloro-8-fluoro-2-(((2R,7aS)-2-fluoro-tetrahydro-1H-pyrrolizin-7a(5H)-yl)methoxy)quinazolin-4-yl)-2,7-diazaspiro[3.5]nonane-2-carbonyl)-1H-imidazole-4-carbonitrile]?
A: pIC50 (GP2D cells): 5.00 to 6.00; Ratio of IC50 KRAS G12D vs. IC50 KRAS G12S (K-Ras G12S): A (A: indicates that the ratio of IC50 against KrasG12D vs. IC50 against KrasG12S is 1-fold or greater)

Q: For `C#Cc1c(F)ccc2cc(O)cc(-c3ncc4c(N5CC6CCC(C5)N6C(=O)n5ccc(C#N)n5)nc(OC[C@@]56CCCN5C[C@H](F)C6)nc4c3F)c12` [Compound A216, 1-(3-(7-(8-ethynyl-7-fluoro-3-hydroxynaphthalen-1-yl)-8-fluoro-2-(((2R,7aS)-2-fluoro-tetrahydro-1H-pyrrolizin-7a(5H)-yl)methoxy)pyrido[4,3-d]pyrimidin-4-yl)-3,8-diaza-bicyclo[3.2.1]octane-8-carbon-yl)-1H-pyrazole-3-carbonitrile], which half-life at 0.5 μM (in vitro) is on record?
A: Its half-life at 0.5 μM is over 10 min.

Q: What about the pIC50 (GP2D cells) of the same molecule?
A: Its pIC50 is at least 6.00.

Q: What about the pIC50 (A549 cells) of the same molecule?
A: The pIC50 was at least 6.30.

Q: For `C#Cc1c(F)ccc2cc(O)cc(-c3ccc4c(N5CCCC6(CN(C(=O)n7cncn7)C6)C5)nc(OC[C@@]56CCCN5C[C@H](F)C6)nc4c3F)c12` [Compound A210, (6-(7-(8-ethynyl-7-fluoro-3-hydroxynaphthalen-1-yl)-8-fluoro-2-(((2R,7aS)-2-fluoro-tetrahydro-1H-pyrrolizin-7a(5H)-yl)methoxy)quinazolin-4-yl)-2,6-diazaspiro[3.5]nonan-2-yl)(1H-1,2,4-triazol-1-yl)-methanone], which “Compound IC50 Ratio IC50 (Cpd A):IC50 (Cpd B)” value (LS123 cells) is on record?
A: Its value is >4 (LS123 cells).

Q: Which results are given for `N#Cc1c(N)sc2c(F)ccc(-c3c(Cl)cc4c(N5CC6(CCCN(C(=O)n7cncn7)C6)C5)nc(OC[C@@]56CCCN5C[C@H](F)C6)nc4c3F)c12` [Compound A266, 4-(4-(6-(1H-1,2,4-triazole-1-carbonyl)-2,6-diazaspiro[3.5]-nonan-2-yl)-6-chloro-8-fluoro-2-(((2R,7aS)-2-fluorotetra-hydro-1H-pyrrolizin-7a(5H)-yl)methoxy)quinazolin-7-yl)-2-amino-7-fluorobenzo[b]thio-phene-3-carbonitrile]?
A: Compound IC50 Ratio IC50 (Cpd A):IC50 (Cpd B) (LS123 cells): >4 (LS123 cells); covalent labeling of K-Ras G12D [1]: essentially no detectable labeling; half-life at 0.5 μM [2]: > 10 min

Q: With `N#Cc1c(N)sc2c(F)ccc(-c3c(Cl)cc4c(N5CCCCC6(CN(C(=O)n7cncn7)C6)C5)nc(OC[C@@]56CCCN5C[C@H](F)C6)nc4c3F)c12` [Compound A295, 4-(4-(2-(1H-1,2,4-triazole-1-carbonyl)-2,6-diazaspiro[3.6]-decan-6-yl)-6-chloro-8-fluoro-2-(((2R,7aS)-2-fluorotetra-hydro-1H-pyrrolizin-7a(5H)-yl)methoxy)quinazolin-7-yl)-2-amino-7-fluorobenzo[b]thio-phene-3-carbonitrile] as the molecule, how does the “Compound IC50 Ratio IC50 (Cpd A):IC50 (Cpd B)” value (LS123 cells) read?
A: The value was >4 (LS123 cells).

Q: And the “covalent labeling of K-Ras G12D” value [1]?
A: The value was “essentially no detectable labeling”.

Q: What does the source list for `Cc1cn(C(=O)N2C3CCC2CN(c2nc(OC[C@@]45CCCN4C[C@H](F)C5)nc4c(F)c(-c5ccc(F)c6sc(N)c(C#N)c56)c(Cl)cc24)C3)nn1` [Compound A189, 2-amino-4-(6-chloro-8-fluoro-2-(((2R,7aS)-2-fluorotetrahydro-1H-pyrrolizin-7a(5H)-yl)meth-oxy)-4-(8-(4-methyl-1H-1,2,3-triazole-1-carbonyl)-3,8-diaza-bicyclo[3.2.1]octan-3-yl)quin-azolin-7-yl)-7-fluorobenzo[b]-thiophene-3-carbonitrile]?
A: pIC50 (GP2D cells): ≥ 6.00; pIC50 (A549 cells): ≥ 6.30

Q: With `N#Cc1c(N)sc2c(F)ccc(-c3c(Cl)cc4c(N5CC(F)(F)C6(CN(C(=O)n7cncn7)C6)C5)nc(OC[C@@]56CCCN5C[C@H](F)C6)nc4c3F)c12` [Compound A199, 2-amino-4-(6-chloro-4-(8,8-difluoro-2-(1H-1,2,4-triazole-1-carbonyl)-2,6-diazaspiro[3.4]-octan-6-yl)-8-fluoro-2-(((2R,7aS)-2-fluorotetrahydro-1H-pyrrolizin-7a(5H)-yl)meth-oxy)quinazolin-7-yl)-7-fluoro-benzo[b]thiophene-3-carbonitrile] as the molecule, how does the pIC50 (GP2D cells) read?
A: The pIC50 was 5.00 to 6.00.

Q: And the pIC50 (A549 cells)?
A: Its pIC50 is at least 6.30.

Q: What about the “covalent labeling of K-Ras G12D” value [1] of the same molecule?
A: The value was “essentially no detectable labeling”.

Q: And the “% G12S Modification at 24 hr.” value [3]?
A: The value was “+++ (+++ indicates greater than 20% labelling)”.
